Reference: patent US20200398077A1, “SYSTEM AND METHOD TO ERADICATE A MAJORITY OF DISEASE-CAUSING GERMS AND PRODUCE AVIRULENT PHENOTYPE SURVIVORS SUSCEPTIBLE TO MICROBICIDES USING A LIGHT DOSE REGIMENT” (priority 2019, published 2020)

Columns and labels:
[1] = system: Depigmented Generation 2 avirulent phenotype survivors (MRSA G2); assay: Kirby-Bauer zones of inhibition (ZOI) antibiotic susceptibility assay, depigmented survivor Generation 2; as to Susceptibility class (CLSI): key: R = resistant; S = susceptible; format: cell-based, S. aureus; conditions: for Susceptibility class (CLSI) / Zone diameter: Depigmented Generation 2 after light dose regiment, Kirby-Bauer ZOI; for Resistance/susceptibility in words (heatmap profile, FIG. 8): MRSA G2 (Generation 2), panel 124, after light dose regiment
Description: (§1) Table 7 below show and example of a Clinical laboratories Science Institute (CLSI) reference table typically used by clinicians and clinical microbiology laboratories to establish whether a clinical isolate is susceptible, intermediate or resistant to a particular type of antibiotic under the Kirby-Bauer ZOI assay:
(§2) In one example, the Kirby-bauer Zones of Inhibition (Z01) assay was performed on the untreated MRSA parent strain and the two generations of the depigmented avirulent phenotype survivors susceptible to microbicides were created by applying the light dose regiment of system 10 and the method thereof discussed above based on the CLSI guidelines, See Table 8 below:
(§3) The first generation (G1) is the avirulent phenotype survivors susceptible to microbicides created by system 10 and the method thereof and the second generation (G2) is the avirulent phenotype survivors susceptible to microbicides created by system 10 and the method thereof. In this example, the ZOI for Linezolid is indicated at 90, the ZOI for Norfloxacin is indicated at 92, the ZOI for Cefprozil is indicated at 94, ZOEs 96 and 98 are blank, ZOI 100 is for Rifampin, ZIO 102 is for Oxacillin and ZOI 104 is for Tetracycline. The growth control for Generation 1 (G1), Generation 2 (G2) and the wild type (WT) is indicated at 106, 108 and 110, respectively. In this example, Methicillin Resistant, S. aureus ATCC 33592. In this example, WT is Oxacillin is considered equivalent to methicillin when describing a MRSA strain. In this example, the ZOIs were measured at 24 hours and 72-hours past-challenge. Generation 1 was serially passaged onto an antibiotic-free TSA plate, then transferred to TSB liquid culture prior to performing the ZOI assay. Generation 2 was transferred from Generation 1, serially passaged onto an antibiotic-free TSA plate, then transferred to a TSB liquid culture prior to performing the ZOI assay. […] Thus, the avirulent phenotype survivors susceptible to microbicides are stable over multiple generations.
(§4) See e.g., Clinical and Laboratory Standards Institute, Performance Standards for Antimicrobial Susceptibility Testing, 29th Edition 950 West Valley Road Suite 2500, Wayne, Pa. 19087 USA, in this example Oxacillin is synonymous with methicillin when describing MRSA.

[2] = system: Depigmented Generation 1 avirulent phenotype survivors (MRSA G1); assay: Kirby-Bauer zones of inhibition (ZOI) antibiotic susceptibility assay, depigmented survivor Generation 1; as to Susceptibility class (CLSI): key: R = resistant; S = susceptible; format: cell-based, S. aureus; conditions: for Susceptibility class (CLSI) / Zone diameter: Depigmented Generation 1 after light dose regiment, Kirby-Bauer ZOI; for Resistance/susceptibility in words (heatmap profile, FIG. 8): MRSA G1 (Generation 1), panel 122, after light dose regiment
Description: as §1, §2, §3, §4

[3] = system: S. aureus ATCC 33592 (MRSA) Parental Wild-Type; assay: Kirby-Bauer zones of inhibition (ZOI) antibiotic susceptibility assay, untreated MRSA parent strain; as to Susceptibility class (CLSI): key: R = resistant; S = susceptible; format: cell-based; conditions: for Resistance/susceptibility in words (heatmap profile, FIG. 8): Parental Wild-Type, panel 120, CLSI M100-ED29:2019; for Susceptibility class (CLSI) / Zone diameter: S. aureus ATCC 33592 (MRSA), untreated parent, Kirby-Bauer ZOI
Description: as §1, §2, §3, §4

| Compound | Susceptibility class (CLSI) [1] | Zone diameter [1] | Resistance/susceptibility in words (heatmap profile, FIG. 8) [1] | Susceptibility class (CLSI) [2] | Zone diameter [2] | Resistance/susceptibility in words (heatmap profile, FIG. 8) [2] | Resistance/susceptibility in words (heatmap profile, FIG. 8) [3] | Susceptibility class (CLSI) [3] | Zone diameter [3] |
| --- | --- | --- | --- | --- | --- | --- | --- | --- | --- |
| CC=CC1=C(C(=O)O)N2C(=O)[C@@H](NC(=O)[C@H](N)c3ccc(O)cc3)[C@H]2SC1 [Cefprozil] | S | 42.98 mm | susceptible | S | 42.99 mm | susceptible | resistant | R | No Inhibition |
| CC(=O)NC[C@H]1CN(c2ccc(N3CCOCC3)c(F)c2)C(=O)O1 [Linezolid] | S | 32.8 mm |  | S | 35.11 mm |  | susceptible | S | 31.33 mm |
| CCn1cc(C(=O)O)c(=O)c2cc(F)c(N3CCNCC3)cc21 [Norfloxacin] | S | 30.17 mm |  | S | 32.68 mm |  | susceptible | S | 27.67 mm |
| Cc1onc(-c2ccccc2)c1C(=O)N[C@@H]1C(=O)N2[C@@H]1SC(C)(C)[C@@H]2C(=O)O [Oxacillin] | S | 27.25 mm | susceptible | S | 28.04 mm | susceptible | resistant | R | No Inhibition |
| CO[C@H]1/C=C/O[C@@]2(C)Oc3c(C)c(O)c4c(O)c(c(/C=N/N5CCN(C)CC5)c(O)c4c3C2=O)NC(=O)/C(C)=C\C=C\[C@H](C)[C@H](O)[C@@H](C)[C@@H](O)[C@@H](C)[C@H](OC(C)=O)[C@@H]1C [Rifampin] | S | 48.68 mm | susceptible | S | 45.04 mm | susceptible | resistant | R | No Inhibition |
| CN(C)[C@@H]1C(O)=C(C(N)=O)C(=O)[C@@]2(O)C(O)=C3C(=O)c4c(O)cccc4[C@@](C)(O)[C@H]3C[C@@H]12 [Tetracycline] | S | 31.31 mm |  | S | 34.66 mm |  |  | R |  |
